Read-outs that look alike come from different tables or passages of the source.
Experiments:
[1] = target: KHK-C expressed in NRK-52E cells (Homo sapiens (Human), UniProt P50053); assay: KHK-C Cell-based Assay (EC50), NRK CTG, fructose-mediated ATP-depletion
human OATP1B1 = human OATP1B1 (Homo sapiens (Human), UniProt Q9Y6L6); assay: In Vitro Inhibition Assessment with Human OATP1B1 Transporter; type: in vitro ADME; conditions: HEK293-OATP1B1 cells, probe substrate pravastatin
Description: In Vitro Inhibition Assessment with Human OATP1B1 and OATP1B3 Transporters Assay Protocol
The purpose of this assay was to assess the inhibition potential of test article (TA) toward human OATP1B1 and OATP1B3 transporters in vitro using cell lines transfected with the individual transporters. The assays used clinically relevant probe substrate pravastatin and a known positive control inhibitor rifampicin. HEK293 mock, HEK293-OATP1B1, and HEK293-OATP1B3 transfected cells were seeded onto CellCoat Poly-D-Lysine coated 96 well black cell culture plates with clear bottoms (Greiner bio-one, Cat. #655946) at a density of 70,000 cells/well and cultured to confluency overnight. Seeding media used was Dulbecco's Modification of Eagle's Medium (DMEM—with GlutaMAX high glucose; Gibco, Cat #: 10569-010) supplemented with 10% fetal bovine serum, 0.1 mM non-essential amino acids, 100 U/mL penicillin, and 100 μg/mL streptomycin. On assay day, media were removed from the assay plates and cells were washed with Hanks' Balanced Salt Solution (HBSS Buffer) (Corning, Cat. #21-023-CV). All TAs and reference inhibitor were serially diluted in DMSO to create spiking solutions at concentrations of 250-fold of final assay concentrations (final DMSO content 0.4%). Cells were preincubated with HBSS buffer containing test compounds for 15 minutes. After the removal of HBSS buffer, dose solution containing TA or reference inhibitor and probe substrate were added to the HEK293-OATP1B1, HEK-293-OATP1B3 and its associated mock cell plate, respectively. The co-incubation period of TAs with the corresponding probe substrate for all plates was 5 minutes. An aliquot of the dose solution was removed from the HEK293 mock cell plates and analysed for dose recovery. Cells were then washed three times with ice cold HBSS buffer and then immediately extracted with methanol:water (70:30 v:v) containing internal standard labetolol (30 nM). The supernatants were evaporated to dryness on injection plates and reconstituted in 80% water containing 20% acetonitrile and 0.1% formic acid for analysis by liquid chromatography with tandem mass spectrometry (LC-MS-MS).
Fractional transport activities were calculated from the equation: Activity %=(A−B)/(C−D)×100
• A: translocated amount of substrate in the presence of TA on transfected cells • B: translocated amount of substrate in the presence of TA on Mock cells • C: translocated amount of substrate in the presence of solvent on transfected cells • D: translocated amount of substrate in the presence of solvent on Mock cells
GraphPad Prism 7.0 (GraphPad Software Inc., San Diego, CA) was used for curve fitting and determination of reaction parameters. In uptake transporter inhibition assays, the IC50 (μM) was calculated, where applicable. IC50 was defined as the concentration of TA required to inhibit maximal activity by 50%.

human KHK-C = human KHK-C (Homo sapiens (Human), UniProt P50053); assay: KHK Biochemical Assay (IC50), ADP-Glo, KHK-C; conditions: average of at least two separate assays
Summary of the method: (§1)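 ADP-Glo luminescence measured ADP made over a 4 h room-temperature reaction of ATP plus fructose, started after 30 min compound–enzyme pre-incubation. Buffer: 50 mM Hepes pH 7.4, 140 mM KCl, 5 mM MgCl2, 0.01% Triton-X. Enzyme was His-tagged, BL21 (DE3)-expressed, Ni-NTA-purified; compounds in 1:3 DMSO dilution series.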

human KHK-A = human KHK-A (Homo sapiens (Human), UniProt P50053); assay: KHK Biochemical Assay (IC50), ADP-Glo, KHK-A; conditions: average of at least two separate assays
Summary of the method: as §1

HepG2 cells = assay: F1P Cell-Based Assay (EC50), 13C6-fructose-1-phosphate in HepG2 cells (cell culture medium or 50% human plasma); conditions: Homo sapiens

Chain of human KHK-C (P50053 whole entry): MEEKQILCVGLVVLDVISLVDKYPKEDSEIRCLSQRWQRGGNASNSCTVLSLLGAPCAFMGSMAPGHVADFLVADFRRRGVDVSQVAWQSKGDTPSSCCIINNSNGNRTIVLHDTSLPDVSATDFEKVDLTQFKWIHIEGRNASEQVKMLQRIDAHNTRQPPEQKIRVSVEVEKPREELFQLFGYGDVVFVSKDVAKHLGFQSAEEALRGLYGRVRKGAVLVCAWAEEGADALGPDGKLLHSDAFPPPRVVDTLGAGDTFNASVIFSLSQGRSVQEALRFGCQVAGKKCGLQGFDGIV
Chain of KHK-C expressed in NRK-52E cells (P50053 whole entry): as above
Chain of human KHK-A (P50053 other isoform, or with tags, fused parts or gaps): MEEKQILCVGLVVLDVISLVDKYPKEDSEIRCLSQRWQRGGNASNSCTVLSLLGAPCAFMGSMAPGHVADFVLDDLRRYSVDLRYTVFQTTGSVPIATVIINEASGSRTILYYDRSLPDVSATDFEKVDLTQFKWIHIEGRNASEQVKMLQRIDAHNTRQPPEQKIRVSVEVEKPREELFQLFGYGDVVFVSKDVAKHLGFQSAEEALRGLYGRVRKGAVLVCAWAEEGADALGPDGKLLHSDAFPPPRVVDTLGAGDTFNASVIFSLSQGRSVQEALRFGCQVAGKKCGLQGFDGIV
Chain of human OATP1B1 (Q9Y6L6 whole entry): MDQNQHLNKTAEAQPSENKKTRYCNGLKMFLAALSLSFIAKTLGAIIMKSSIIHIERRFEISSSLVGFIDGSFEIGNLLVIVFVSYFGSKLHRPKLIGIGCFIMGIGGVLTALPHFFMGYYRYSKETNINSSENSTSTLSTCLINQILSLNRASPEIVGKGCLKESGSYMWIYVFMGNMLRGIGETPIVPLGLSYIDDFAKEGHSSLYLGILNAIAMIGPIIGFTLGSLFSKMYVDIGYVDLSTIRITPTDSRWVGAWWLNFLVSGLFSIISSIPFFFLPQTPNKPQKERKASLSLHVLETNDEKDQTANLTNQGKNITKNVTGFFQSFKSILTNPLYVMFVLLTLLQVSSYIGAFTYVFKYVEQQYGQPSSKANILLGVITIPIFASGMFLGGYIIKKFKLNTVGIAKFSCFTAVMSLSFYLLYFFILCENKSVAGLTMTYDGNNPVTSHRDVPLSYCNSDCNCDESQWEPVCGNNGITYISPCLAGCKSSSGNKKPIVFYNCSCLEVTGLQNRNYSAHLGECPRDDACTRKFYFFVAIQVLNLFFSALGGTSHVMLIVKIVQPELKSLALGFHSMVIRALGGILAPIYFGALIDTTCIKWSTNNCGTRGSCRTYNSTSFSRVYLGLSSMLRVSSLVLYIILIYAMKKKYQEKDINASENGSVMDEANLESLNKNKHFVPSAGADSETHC

Row | SMILES | EC50 [1] [nM] | IC50 (human OATP1B1) [nM] | IC50 (human KHK-C; ADP-Glo) [nM] | IC50 (human KHK-A; ADP-Glo) [nM] | IC50 (human KHK-C) [nM] | IC50 (human KHK-A) [nM] | EC50 (HepG2 cells; HepG2, HepG2 cells, 50% human plasma, read-out: F1P 50% HP EC50) [nM] | EC50 (HepG2 cells; HepG2, read-out: F1P 10% FBS EC50, HepG2 cells, cell culture medium (10% FBS)) [nM] | EC50 (HepG2 cells; HepG2, read-out: F1P 10% FBS EC50) [nM] | EC50 (HepG2 cells; HepG2, read-out: F1P 50% HP EC50) [nM]
1 | C[C@H]1CCN1c1nc2c(c(-c3cccc(CCC(=O)O)c3)n1)CCC2 [Example 4, (S)-3-(3-(2-(2-methylazetidin-1-yl)-6,7-dihydro-5H-cyclopenta[d]pyrimidin-4-yl)phenyl)propanoic acid] | 310 | 928 | 46.1 | 41.4 | – | – | – | – | – | –
2 | C[C@H]1CCN1c1nc2c(c(-c3cccc(C(=O)O)c3)n1)CCC2 [Example 9, (S)-3-(2-(2-methylazetidin-1-yl)-6,7-dihydro-5H-cyclopenta[d]pyrimidin-4-yl)benzoic acid] | 611 | 448 | 68.6 | 48.9 | – | – | – | – | – | –
3 | C[C@H]1[C@H](O)CN1c1nc2c(c(-c3ccc(C4(N)COC4)cc3)n1)CCC2 [Example 159, (2S,3R)-1-(4-(4-(3-aminooxetan-3-yl)phenyl)-6,7-dihydro-5H-cyclopenta[d]pyrimidin-2-yl)-2-methylazetidin-3-ol] | 36.9 | 7400 | 10.1 | 25.6 | – | – | – | – | – | –
4 | C[C@H]1[C@H](O)CN1c1nc(-c2ccc(C(N)=O)c(OC(F)F)c2)c2c(n1)C(F)(F)CC2 [Example 182, 4-(7,7-difluoro-2-((2S,3R)-3-hydroxy-2-methylazetidin-1-yl)-6,7-dihydro-5H-cyclopenta[d]pyrimidin-4-yl)-2-(difluoromethoxy)benzamide] | 156 | 2840 | 10.2 | – | – | – | – | – | – | –
5 | C[C@H]1[C@H](O)CN1c1nc(-c2ccc3c(c2)C(=O)N(C)C3)c2c(n1)C(F)(F)CC2 [Example 236, 6-(7,7-difluoro-2-((2S,3R)-3-hydroxy-2-methylazetidin-1-yl)-6,7-dihydro-5H-cyclopenta[d]pyrimidin-4-yl)-2-methylisoindolin-1-one] | 31.3 | 1390 | – | – | – | – | – | – | – | –
6 | C[C@H]1[C@H](O)CN1c1nc2c(c(-c3cccc(CNS(C)(=O)=O)c3)n1)CCC2 [Example 285] | 82.4 | 1260 | 47.8 | 57.2 | – | – | – | – | – | –
7 | C[C@H]1CCN1c1nc(-c2ccc3c(=O)[nH]ccc3c2)c2c(n1)C(F)(F)CC2 [Example 317, (S)-6-(7,7-difluoro-2-(2-methylazetidin-1-yl)-6,7-dihydro-5H-cyclopenta[d]pyrimidin-4-yl)isoquinolin-1(2H)-one] | 3.5 | 284 | 1.7 | 4.9 | – | – | – | – | – | –
8 | C[C@H]1[C@H](O)CN1c1nc(-c2cccc(S(N)(=O)=O)c2)c2c(n1)C(F)(F)CC2 [Example 322, 3-(7,7-difluoro-2-((2S,3R)-3-hydroxy-2-methylazetidin-1-yl)-6,7-dihydro-5H-cyclopenta[d]pyrimidin-4-yl)benzenesulfonamide] | 76.4 | 13300 | 7.4 | 5.1 | – | – | – | – | – | –
9 | C[C@H]1[C@H](O)CN1c1nc2c(c(-c3ccc4c(=O)[nH]ccc4c3)n1)CCC2 [Example 373, 6-[2-[(2S,3R)-3-hydroxy-2-methyl-azetidin-1-yl]-6,7-dihydro-5H-cyclopenta[d]pyrimidin-4-yl]-2H-isoquinolin-1-one] | 53.8 | 379 | 20.4 | 54 | – | – | – | – | – | –
10 | C[C@H]1CCN1c1nc2c(c(-c3cc(F)c4c(=O)[nH]ccc4c3)n1)CCC2 [Example 382, 8-fluoro-6-[2-[(2S)-2-methylazetidin-1-yl]-6,7-dihydro-5H-cyclopenta[d]pyrimidin-4-yl]-2H-isoquinolin-1-one] | 13.8 | 149 | 6.3 | 16.1 | – | – | – | – | – | –
11 | C[C@H]1[C@H](O)CN1c1nc(-c2ccc3c(c2)S(=N)(=O)CCNC3)c2c(n1)C(F)(F)CC2 (stereo partly shown) [Example 725] | – | > 40000 | – | – | 0.9 | 2.2 | – | – | 37.7 | 23.5

Continued, in another order:

Row | EC50 [1] [nM] | IC50 (human OATP1B1) [nM] | IC50 (human KHK-C; ADP-Glo) [nM] | IC50 (human KHK-A; ADP-Glo) [nM] | IC50 (human KHK-C) [nM] | IC50 (human KHK-A) [nM] | EC50 (HepG2 cells; HepG2, HepG2 cells, 50% human plasma, read-out: F1P 50% HP EC50) [nM] | EC50 (HepG2 cells; HepG2, read-out: F1P 10% FBS EC50, HepG2 cells, cell culture medium (10% FBS)) [nM] | SMILES | EC50 (HepG2 cells; HepG2, read-out: F1P 10% FBS EC50) [nM] | EC50 (HepG2 cells; HepG2, read-out: F1P 50% HP EC50) [nM]
12 | 7.3 | 194 | 4.4 | 10.8 | – | – | – | – | C[C@H]1CCN1c1nc2c(c(-c3ccc4c(=O)[nH]cnc4c3)n1)CCC2 [Example 383, 7-[2-[(2S)-2-methylazetidin-1-yl]-6,7-dihydro-5H-cyclopenta[d]pyrimidin-4-yl]-3H-quinazolin-4-one] | – | –
13 | 40.2 | 210 | – | – | 30.2 | 17.8 | – | – | C[C@H]1CCN1c1nc2c(c(-c3ccc4c(=O)[nH]ncc4c3)n1)CCC2 [Example 427, 6-[2-[(2S)-2-methylazetidin-1-yl]-6,7-dihydro-5H-cyclopenta[d]pyrimidin-4-yl]-2H-phthalazin-1-one] | – | –
14 | 5 | 1810 | – | – | 3.4 | – | – | – | C[C@H]1CCN1c1nc2c(c(-c3cc4c(N)nccc4s3)n1)CCC2 [Example 446, 2-[2-[(2S)-2-methylazetidin-1-yl]-6,7-dihydro-5H-cyclopenta[d]pyrimidin-4-yl]thieno[3,2-c]pyridin-4-amine] | – | –
15 | 298 | 992 | – | – | 9.3 | – | – | – | C[C@H]1[C@H](O)CN1c1nc2c(c(-c3cc4cc[nH]c(=O)c4s3)n1)CCC2 [Example 450, 2-[2-[(2S,3R)-3-hydroxy-2-methyl-azetidin-1-yl]-6,7-dihydro-5H-cyclopenta[d]pyrimidin-4-yl]-6H-thieno[2,3-c]pyridin-7-one] | – | –
16 | – | 9770 | – | – | 1.6 | 14 | 72.4 | 11.9 | C[C@H]1[C@H](O)CN1c1nc(-c2ccc3c(c2)COC[C@@H]3NS(C)(=O)=O)c2c(n1)C(F)(F)CC2 [Example 487, N—((R)-7-(7,7-difluoro-2-((2S,3R)-3-hydroxy-2-methylazetidin-1-yl)-6,7-dihydro-5H-cyclopenta[d]pyrimidin-4-yl)isochroman-4-yl)methanesulfonamide] | – | –
17 | 15.7 | 3140 | – | – | 2.4 | – | – | – | C[C@H]1[C@H](O)CN1c1nc(-c2ccc3c(c2)S(=O)(=O)NC3)c2c(n1)C(F)(F)CC2 [Example 598] | – | –
18 | 4900 | 4380 | – | – | 20.3 | – | – | – | C[C@H]1[C@H](O)CN1c1nc(-c2cnc3c(c2)OCCNC3=O)c2c(n1)C(F)(F)CC2 [Example 599] | – | –
19 | 70.8 | 798 | – | – | 2.6 | – | – | – | C[C@H]1[C@H](O)CN1c1nc(-c2cc3cc[nH]c(=O)c3s2)c2c(n1)C(F)(F)CC2 [Example 643, 2-[7,7-difluoro-2-[(2S,3R)-3-hydroxy-2-methyl-azetidin-1-yl]-5,6-dihydrocyclopenta[d]pyrimidin-4-yl]-6H-thieno[2,3-c]pyridin-7-one] | – | –
20 | 258 | 30500 | – | – | 35.2 | – | – | – | C[C@H]1[C@H](O)CN1c1nc(-c2ccc(S(C)(=N)=O)cc2)c2c(n1)C(F)(F)CC2 (stereo partly drawn) [Example 715, (4-(7,7-difluoro-2-((2S,3R)-3-hydroxy-2-methylazetidin-1-yl)-6,7-dihydro-5H-cyclopenta[d]pyrimidin-4-yl)phenyl)(imino)(methyl)-λ^6-sulfanone] | – | –
21 | 52.1 | 2870 | – | – | 6.5 | – | – | – | C[C@H]1[C@H](O)CN1c1nc(-c2ccc(C3(O)CS(=O)(=O)C3)cc2)c2c(n1)C(F)(F)CC2 [Example 735] | – | –
22 | 52.2 | 1750 | – | – | 7 | – | – | – | C[C@H]1[C@H](O)CN1c1nc(-c2cc3c(c(C(N)=O)c2)CCO3)c2c(n1)C(F)(F)CC2 [Example 756, 6-[7,7-difluoro-2-[(2S,3R)-3-hydroxy-2-methyl-azetidin-1-yl]-5,6-dihydrocyclopenta[d]pyrimidin-4-yl]-2,3-dihydrobenzofuran-4-carboxamide] | – | –
